According to ChEMBL document CHEMBL4392841, “Identification of ortho-hydroxy anilide as a novel scaffold for lysine demethylase 5 inhibitors” (Bioorg Med Chem Lett, 2019):
pIC50: −log10 of the molar value. Calls of active or inactive are those of the source. The calls are words filed in the database; no cut-off is given here.

Key:
[1] = target: T1, Lysine-specific demethylase 5A (Homo sapiens, UniProt P29375); experiment: Inhibition of C-terminal FLAG-tagged human KDM5A expressed in Sf9 cells pre-incubated for 4 hrs before substrate addition and measured after 1 hr by AlphaScreen assay
T1 sequence (P29375 whole entry): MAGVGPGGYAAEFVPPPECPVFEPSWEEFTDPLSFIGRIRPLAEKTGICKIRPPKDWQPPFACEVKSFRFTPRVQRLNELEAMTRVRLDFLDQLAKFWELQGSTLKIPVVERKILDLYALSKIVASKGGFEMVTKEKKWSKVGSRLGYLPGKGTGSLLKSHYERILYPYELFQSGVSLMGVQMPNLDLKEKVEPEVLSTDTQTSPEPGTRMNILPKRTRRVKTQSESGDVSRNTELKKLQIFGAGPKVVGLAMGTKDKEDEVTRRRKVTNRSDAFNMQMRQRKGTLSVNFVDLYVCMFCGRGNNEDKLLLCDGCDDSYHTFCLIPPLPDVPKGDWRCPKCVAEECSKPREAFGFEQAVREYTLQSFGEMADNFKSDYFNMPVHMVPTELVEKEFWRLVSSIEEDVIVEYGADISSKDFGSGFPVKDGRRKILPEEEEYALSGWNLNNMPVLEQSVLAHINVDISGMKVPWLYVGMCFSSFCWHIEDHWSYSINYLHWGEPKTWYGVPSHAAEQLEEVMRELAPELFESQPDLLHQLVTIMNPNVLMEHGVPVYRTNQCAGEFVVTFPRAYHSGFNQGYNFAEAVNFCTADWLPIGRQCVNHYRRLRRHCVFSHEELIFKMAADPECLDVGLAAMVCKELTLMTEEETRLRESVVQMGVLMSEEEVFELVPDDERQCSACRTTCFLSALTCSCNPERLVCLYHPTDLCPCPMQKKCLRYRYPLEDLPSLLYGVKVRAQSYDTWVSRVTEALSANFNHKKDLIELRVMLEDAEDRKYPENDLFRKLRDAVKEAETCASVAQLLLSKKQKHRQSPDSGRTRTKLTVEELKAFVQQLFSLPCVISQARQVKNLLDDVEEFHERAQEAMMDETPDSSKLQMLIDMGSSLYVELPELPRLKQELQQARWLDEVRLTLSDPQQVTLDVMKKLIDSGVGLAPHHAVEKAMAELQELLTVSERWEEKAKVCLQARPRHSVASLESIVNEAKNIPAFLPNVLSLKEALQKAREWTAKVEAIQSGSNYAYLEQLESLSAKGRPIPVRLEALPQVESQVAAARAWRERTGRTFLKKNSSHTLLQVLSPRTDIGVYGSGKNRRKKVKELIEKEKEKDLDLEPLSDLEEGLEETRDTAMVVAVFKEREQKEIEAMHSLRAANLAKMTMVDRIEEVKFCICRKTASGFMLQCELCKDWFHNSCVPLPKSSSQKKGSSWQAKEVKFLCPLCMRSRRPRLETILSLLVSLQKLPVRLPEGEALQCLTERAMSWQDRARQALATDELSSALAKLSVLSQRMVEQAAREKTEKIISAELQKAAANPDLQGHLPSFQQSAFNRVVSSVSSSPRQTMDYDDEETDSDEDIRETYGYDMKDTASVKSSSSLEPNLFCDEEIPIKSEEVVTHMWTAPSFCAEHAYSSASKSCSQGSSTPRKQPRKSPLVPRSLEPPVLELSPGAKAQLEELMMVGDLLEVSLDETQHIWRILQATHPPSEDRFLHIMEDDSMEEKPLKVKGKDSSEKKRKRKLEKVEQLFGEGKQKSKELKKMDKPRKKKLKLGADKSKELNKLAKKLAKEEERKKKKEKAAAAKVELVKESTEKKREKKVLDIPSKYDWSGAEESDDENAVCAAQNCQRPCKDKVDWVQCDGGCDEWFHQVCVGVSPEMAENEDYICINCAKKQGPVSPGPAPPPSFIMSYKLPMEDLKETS

[2] = target: T1, Lysine-specific demethylase 5A; experiment: Inhibition of C-terminal FLAG-tagged human KDM5A expressed in Sf9 cells at 50 uM pre-incubated for 4 hrs before substrate addition and measured after 1 hr by AlphaScreen assay
[3] = target: T2, Lysine-specific demethylase 4A (Homo sapiens) (UniProt O75164); experiment: Inhibition of C-terminal FLAG-tagged human KDM4A expressed in Escherichia coli at 50 uM pre-incubated for 4 hrs before substrate addition and measured after 1 hr by AlphaScreen assay
T2 sequence (whole entry): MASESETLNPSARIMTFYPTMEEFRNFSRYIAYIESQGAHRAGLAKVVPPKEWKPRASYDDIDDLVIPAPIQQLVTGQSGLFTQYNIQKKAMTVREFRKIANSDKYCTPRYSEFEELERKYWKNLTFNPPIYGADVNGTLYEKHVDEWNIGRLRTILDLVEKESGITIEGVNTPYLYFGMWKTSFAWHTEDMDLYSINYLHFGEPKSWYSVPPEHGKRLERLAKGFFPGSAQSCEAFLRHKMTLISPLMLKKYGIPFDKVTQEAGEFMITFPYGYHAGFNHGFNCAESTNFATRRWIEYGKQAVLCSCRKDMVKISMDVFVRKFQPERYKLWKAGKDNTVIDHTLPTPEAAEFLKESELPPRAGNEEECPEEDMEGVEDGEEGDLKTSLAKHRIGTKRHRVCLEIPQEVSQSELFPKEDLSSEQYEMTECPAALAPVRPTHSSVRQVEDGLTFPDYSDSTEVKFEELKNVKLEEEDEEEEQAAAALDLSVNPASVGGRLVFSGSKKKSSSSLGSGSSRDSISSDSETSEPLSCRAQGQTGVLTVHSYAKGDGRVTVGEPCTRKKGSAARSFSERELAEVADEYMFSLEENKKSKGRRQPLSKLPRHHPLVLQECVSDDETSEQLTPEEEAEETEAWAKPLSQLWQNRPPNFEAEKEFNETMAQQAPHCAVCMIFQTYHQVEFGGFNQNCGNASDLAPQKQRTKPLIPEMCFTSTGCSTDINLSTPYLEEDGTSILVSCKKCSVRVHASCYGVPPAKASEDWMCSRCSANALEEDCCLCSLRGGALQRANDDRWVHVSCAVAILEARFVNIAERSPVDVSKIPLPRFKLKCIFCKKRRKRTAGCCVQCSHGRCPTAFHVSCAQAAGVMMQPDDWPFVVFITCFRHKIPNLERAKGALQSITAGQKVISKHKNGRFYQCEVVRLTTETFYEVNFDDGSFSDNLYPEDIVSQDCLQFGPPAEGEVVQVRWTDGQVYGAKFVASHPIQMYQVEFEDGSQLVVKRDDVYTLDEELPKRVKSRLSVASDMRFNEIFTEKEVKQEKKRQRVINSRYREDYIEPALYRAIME

[4] = target: T1, Lysine-specific demethylase 5A; experiment: Inhibition of KDM5A in human A549 cells assessed as H3K4me3/H3 ratio level at 250 uM levels incubated for 24 hrs by Western blot analysis relative to control; assay type: cell-based
[5] = system: A549; experiment: Cytotoxicity in human A549 cells assessed as reduction in cell viability at 250 uM; assay type: functional, cell-based
[6] = target: T1, Lysine-specific demethylase 5A; experiment: Inhibition of KDM5A in human A549 cells assessed as H3K4me3/H3 ratio level at 50 uM levels incubated for 24 hrs by Western blot analysis relative to control; assay type: cell-based
[7] = target: T1, Lysine-specific demethylase 5A; experiment: Inhibition of KDM5A in human A549 cells assessed as H3K4me3/H3 ratio level at 100 uM levels incubated for 24 hrs by Western blot analysis relative to control; assay type: cell-based
[8] = target: T1, Lysine-specific demethylase 5A; experiment: Inhibition of C-terminal FLAG-tagged human KDM5A expressed in Sf9 cells at 200 uM pre-incubated for 15 mins before H3(1-21)K4me3 peptide substrate addition in presence of 50 uM alpha-KG by formaldehyde dehydrogenase coupled demethylase assay
[9] = target: T1, Lysine-specific demethylase 5A; experiment: Inhibition of C-terminal FLAG-tagged human KDM5A expressed in Sf9 cells at 200 uM pre-incubated for 15 mins before H3(1-21)K4me3 peptide substrate addition in presence of 1000 uM alpha-KG by formaldehyde dehydrogenase coupled demethylase assay
[10] = target: Lysine-specific demethylase 6B (Homo sapiens) (UniProt O15054); experiment: Inhibition of C-terminal FLAG-tagged human KDM6B expressed in expressed in Sf9 cells at 50 uM pre-incubated for 4 hrs before substrate addition and measured after 1 hr by AlphaScreen assay
Sequence of Lysine-specific demethylase 6B (Homo sapiens) (O15054 whole entry): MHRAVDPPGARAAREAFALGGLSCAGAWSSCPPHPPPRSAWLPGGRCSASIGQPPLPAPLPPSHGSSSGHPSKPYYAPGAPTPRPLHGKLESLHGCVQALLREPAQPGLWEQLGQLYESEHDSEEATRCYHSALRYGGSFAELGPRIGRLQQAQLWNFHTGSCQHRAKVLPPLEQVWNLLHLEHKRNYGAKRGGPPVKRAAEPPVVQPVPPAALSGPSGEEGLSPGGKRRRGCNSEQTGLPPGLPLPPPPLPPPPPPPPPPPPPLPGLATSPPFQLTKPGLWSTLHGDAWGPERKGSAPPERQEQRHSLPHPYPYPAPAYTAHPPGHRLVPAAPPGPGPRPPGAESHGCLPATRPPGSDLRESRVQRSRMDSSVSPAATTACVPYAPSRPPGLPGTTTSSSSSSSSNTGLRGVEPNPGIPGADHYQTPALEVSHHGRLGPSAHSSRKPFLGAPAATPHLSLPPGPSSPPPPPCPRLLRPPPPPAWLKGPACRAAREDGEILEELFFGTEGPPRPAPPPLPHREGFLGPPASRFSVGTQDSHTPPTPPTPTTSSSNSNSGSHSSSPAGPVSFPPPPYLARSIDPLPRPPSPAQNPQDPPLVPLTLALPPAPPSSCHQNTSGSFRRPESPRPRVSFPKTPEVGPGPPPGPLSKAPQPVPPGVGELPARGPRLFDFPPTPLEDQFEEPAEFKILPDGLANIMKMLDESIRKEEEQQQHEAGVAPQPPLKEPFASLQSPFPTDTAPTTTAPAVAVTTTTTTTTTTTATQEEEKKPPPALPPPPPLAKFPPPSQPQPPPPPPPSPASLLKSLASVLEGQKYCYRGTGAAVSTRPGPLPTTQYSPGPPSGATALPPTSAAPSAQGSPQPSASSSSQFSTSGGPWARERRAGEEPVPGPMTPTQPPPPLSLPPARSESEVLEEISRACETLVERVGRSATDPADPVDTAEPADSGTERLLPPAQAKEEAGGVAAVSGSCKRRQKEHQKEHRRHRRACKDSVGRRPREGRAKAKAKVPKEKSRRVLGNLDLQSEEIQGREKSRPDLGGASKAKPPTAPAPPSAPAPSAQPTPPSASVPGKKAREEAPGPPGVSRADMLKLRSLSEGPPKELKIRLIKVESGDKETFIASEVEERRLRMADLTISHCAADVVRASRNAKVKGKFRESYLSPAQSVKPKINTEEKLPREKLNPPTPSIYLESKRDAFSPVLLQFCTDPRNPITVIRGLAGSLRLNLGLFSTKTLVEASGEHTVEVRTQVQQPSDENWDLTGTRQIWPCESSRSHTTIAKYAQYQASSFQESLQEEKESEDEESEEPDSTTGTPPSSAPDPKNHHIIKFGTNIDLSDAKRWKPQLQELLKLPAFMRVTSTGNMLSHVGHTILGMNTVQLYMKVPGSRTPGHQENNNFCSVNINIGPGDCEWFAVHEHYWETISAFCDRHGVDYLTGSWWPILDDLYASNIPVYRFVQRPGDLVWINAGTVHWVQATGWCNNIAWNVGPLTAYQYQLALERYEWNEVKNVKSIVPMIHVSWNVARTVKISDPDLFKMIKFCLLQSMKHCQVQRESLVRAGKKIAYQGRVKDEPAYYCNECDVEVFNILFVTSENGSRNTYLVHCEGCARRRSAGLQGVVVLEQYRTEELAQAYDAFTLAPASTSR

[11] = target: Histone deacetylase 1 (Homo sapiens) (UniProt Q13547); experiment: Inhibition of C-terminal GST-tagged full-length human HDAC1 expressed in Sf9 cells at 100 uM pre-incubated for 10 mins before substrate addition and measured after 20 mins by fluorescence assay
Sequence of Histone deacetylase 1 (Homo sapiens) (Q13547 whole entry): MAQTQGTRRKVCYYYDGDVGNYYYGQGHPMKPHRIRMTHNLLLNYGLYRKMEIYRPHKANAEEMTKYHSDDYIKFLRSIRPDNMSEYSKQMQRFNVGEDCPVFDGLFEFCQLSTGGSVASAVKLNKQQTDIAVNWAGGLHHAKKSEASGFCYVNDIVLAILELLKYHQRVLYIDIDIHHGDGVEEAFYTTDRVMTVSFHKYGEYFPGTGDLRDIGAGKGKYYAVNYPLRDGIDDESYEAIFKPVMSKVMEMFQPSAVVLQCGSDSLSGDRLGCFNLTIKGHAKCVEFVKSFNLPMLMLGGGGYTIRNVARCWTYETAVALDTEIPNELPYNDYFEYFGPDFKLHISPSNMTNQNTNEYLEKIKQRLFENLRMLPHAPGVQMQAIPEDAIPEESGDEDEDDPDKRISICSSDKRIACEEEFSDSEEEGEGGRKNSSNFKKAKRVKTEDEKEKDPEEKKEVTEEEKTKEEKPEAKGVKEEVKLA

[12] = target: T1, Lysine-specific demethylase 5A; experiment: Inhibition of KDM5A in human A549 cells assessed as increase in H3K4me3/H3 ratio level at 50 to 250 uM levels incubated for 24 hrs by Western blot analysis relative to control; assay type: cell-based
[13] = target: T1, Lysine-specific demethylase 5A; experiment: Inhibition of KDM5A in human A549 cells assessed as increase in H3K4me3/H3 levels incubated for 24 hrs by Western blot analysis; assay type: cell-based
[14] = target: T3, Lysine-specific demethylase 4A (Homo sapiens, UniProt O75164); experiment: Inhibition of C-terminal FLAG-tagged human KDM4A expressed in Escherichia coli pre-incubated for 4 hrs before substrate addition and measured after 1 hr by AlphaScreen assay
T3 sequence (O75164 whole entry): T2 sequence (whole entry)

CCCCCN(C)CCCCC(=O)N(O)CCC(=O)O
pIC50 [1]: 7.10

CC(=O)Nc1cc(C(=O)O)ccc1O
inhibition [2]: Active

O=CNc1ccc(C(=O)O)cc1O
inhibition [3]: 20%
Ratio [4]: 0.96
Activity [5]: inactive
Ratio [6]: 0.93
Ratio [7]: 1.01
inhibition [8]: 97%
pIC50 [1]: 4.34
inhibition [9]: 44%
inhibition [10]: 38%
inhibition [2]: 87%
inhibition [11]: 6%

O=CNc1cc(C(=O)O)ccc1O
pIC50 [1]: 4.32
inhibition [2]: 73%

COC(=O)c1ccc(NC=O)c(O)c1
fold change (FC) [12]: 1.7 to 2.2
Ratio [4]: 2.15
Activity [5]: inactive
Ratio [6]: 1.31
Ratio [7]: 1.72
inhibition [13]: Dose-dependent effect

CC(=O)Nc1ccc(C(=O)O)cc1N
inhibition [2]: inactive

CC(=O)Nc1ccc(C(=O)O)cc1O
inhibition [2]: Active

O=C(O)CNC(=O)C(=O)O [N-OXALYLGLYCINE]
pIC50 [14]: 4.07
